How the values were obtained:
Type in all cases: in vivo, mouse
[1] = Bile weight after a single oral administration in DIO mice; conditions: 30 mg/kg + sitagliptin 10 mg/kg p.o., 6, 12, 18, 24 h
Method: Bile Weight after a Single Oral Administration of the Compound
(§1) In this study, we evaluated if the observed GLP-1 elevation (induced by the compounds of the present invention) may be associated with gallbladder filling. We treated mice with Compound 268 and monitored the bile weight (a measure that indicated gallbladder filling) to determine if the compound retained more bile in the gallbladder as compared to the control mice (i.e., vehicle alone). A time course study was performed to measure weight of the bile aspirated from the gallbladder after oral administration of Compound 268 (30 mg/kg) in high fat diet induced obese (DIO) mice. In this study, GLP-1 levels were also measured at each time point (FIG. 9).
(§2) Approximately 12 week old DIO male mice (obtained from Taconic) were acclimated in the testing facility for over two weeks. The mice were provided a high fat diet [Research Diet D12492 (60% Fat kcal)] while in the testing facility. […] The blood samples were distributed as follows: 150-200 μL of blood were placed in an EDTA K^2+ tube containing 5 μL of 40 mg/mL aprotinin (Sigma A1153) and 1 μL of 10 mM sitagliptin (Sigma 58576) to be used for GLP-1 measurements; the remaining blood (≥250 μL) was placed in an EDTA K^2+ tube and plasma was processed for analytical chemistry and analyzed by LCMS/MS method as described in Example 81. […]

[2] = Plasma concentrations after chronic dosing (5 days) in DIO mice; conditions: after second and tenth dose, 0-12 h
Method: Plasma Concentrations after Chronic Dosing of Compound
In the study, the plasma level of compounds of the present invention (i.e., Compound 268) was monitored at day 1 and day 5. The same animal protocol as described in Examples 87 and 88 was utilized.
FIG. 14 depicts the plasma concentration of Compound 268 at 0, 3, 6, 9, and 12 hours after the second and at 3, 6, 9, and 12 hours after the tenth dose. […] No significant increases were observed over time.

[3] = Food intake over multiple weeks of dosing in DIO mice; conditions: 30 mg/kg BID p.o., 6 weeks
Excerpt: In the next series of studies (Examples 93-99), Male DIO mice were received at 12 weeks of age (from Taconic), and were single-housed at the testing facility and acclimated for at least 2 weeks. The mice were provided a high fat diet [Research Diet D12492 (60% Fat kcal)] while in the testing facility. Before the study initiation, the animals were randomized into 5 experimental groups by body weight. The vehicle group contained only 0.5% carboxymethylcellulose (medium viscosity)+0.25% Tween-80. The second group contained 10 mg/kg of the DPP-IV inhibitor Sitagliptin while the third group contained 30 mg/kg Compound 268. The fourth group contained the combination of 10 mg/kg Sitagliptin and 30 mg/kg Compound 268. The fifth group was the positive control for weight loss, Rimonabant. All mice were dosed BID at approximately 6:00 am and again at approximately 4:00 pm. The positive control rimonabant was administered at a dose of 10 mg/kg in the afternoon and the morning dosing was vehicle (no compound). […]
Compounds of the present invention were dosed for multiple weeks and were evaluated for their ability to cause mice to have a lower food intake. […]
The HFD (Research Diets, D12492, 60% fat kcal) was placed at the bottom of the cage on a singly-housed animal. […] Daily food intake is calculated by averaging over a 3 or 4 day period every week.

GLP-1 [4] = assay: Plasma GLP-1 time course after a single oral dose in DIO mice; conditions: 30 mg/kg + sitagliptin versus sitagliptin alone, 6-24 h
Method: as §1, §2

GLP-1 [5] = assay: GLP-1 levels after chronic dosing (5 days) in DIO mice; conditions: 30 mg/kg + sitagliptin 10 mg/kg p.o., after dose 2 and dose 10 (5 days), versus sitagliptin alone
Method: GLP-1 Levels after Chronic Dosing of Compounds
The chronic dosing of compounds of the present invention was evaluated to determine if they produce sustained GLP-1 levels.
Male DIO mice were received at 12 weeks of age (from Taconic), and were single-housed at the testing facility and acclimated for at least 2 weeks. The mice were provided a high fat diet [Research Diet D12492 (60% Fat kcal)] while in the testing facility. Before the study initiation, the animals were randomized into 18 experimental groups by body weight. The first 10 groups were administered with sitagliptin alone at 10 mg/kg or sitagliptin (10 mg/kg)+Compound 268 at 30 mg/kg by oral gavage and then again 14 hours later (except for one sitagliptin treated and one sitagliptin+Compound 268 treated groups that were euthanized 14° hours after the first dose). The remaining mice were euthanized at 3, 6, or 9 hours after the second dose to collect blood for GLP-1 measurements and bile weights. The remaining 8 groups were administered by oral gavage with sitagliptin alone at 10 mg/kg or sitagliptin (10 mg/kg)+Compound 268 at 30 mg/kg every 10 or 14 hours for 5 days. […] The active form of GLP-1 [GLP-1 (7-36) amide] was analyzed using Meso Scale Discovery System according to the manufacturer's instruction. […]

plasma level of compound after chronic dosing [2]: maintained at a low concentration level
SMILES: N#Cc1ccc(CCNC(=O)[C@@H]2CCN2c2cc(N3CCC(CCNC(=O)NCCC(=O)O)CC3)nc(C(F)(F)F)n2)cc1 [Compound 268, (S)-3-(3-(2-(1-(6-(2-((4-cyanophenethyl)carbamoyl)azetidin-1-yl)-2-(trifluoromethyl)pyrimidin-4-yl)piperidin-4-yl)ethyl)ureido)propanoic acid]
bile weight [1]: did not cause any significant increase in bile weight | food intake [3]: minor, but steady effect on food intake | plasma GLP-1 levels (GLP-1 [4]): significant elevation of GLP-1 levels | plasma GLP-1 level after chronic dosing (GLP-1 [5]): significantly increased level of GLP-1

— patent publication US10654834B2 (Venenum Biodesign, LLC, priority 2016, dated 2020)
